Drawing on patent US11332459B2 (TEIJIN PHARMA LIMITED, priority 2017, dated 2022), this text covers IC50 for 27 molecules.

SMILES strings stand for the structures.

The assay has as its target T1, human TRPC6 (Homo sapiens, UniProt Q9Y210).
T1 construct: expressed in transfected cells
T1 sequence (Q9Y210 1-931): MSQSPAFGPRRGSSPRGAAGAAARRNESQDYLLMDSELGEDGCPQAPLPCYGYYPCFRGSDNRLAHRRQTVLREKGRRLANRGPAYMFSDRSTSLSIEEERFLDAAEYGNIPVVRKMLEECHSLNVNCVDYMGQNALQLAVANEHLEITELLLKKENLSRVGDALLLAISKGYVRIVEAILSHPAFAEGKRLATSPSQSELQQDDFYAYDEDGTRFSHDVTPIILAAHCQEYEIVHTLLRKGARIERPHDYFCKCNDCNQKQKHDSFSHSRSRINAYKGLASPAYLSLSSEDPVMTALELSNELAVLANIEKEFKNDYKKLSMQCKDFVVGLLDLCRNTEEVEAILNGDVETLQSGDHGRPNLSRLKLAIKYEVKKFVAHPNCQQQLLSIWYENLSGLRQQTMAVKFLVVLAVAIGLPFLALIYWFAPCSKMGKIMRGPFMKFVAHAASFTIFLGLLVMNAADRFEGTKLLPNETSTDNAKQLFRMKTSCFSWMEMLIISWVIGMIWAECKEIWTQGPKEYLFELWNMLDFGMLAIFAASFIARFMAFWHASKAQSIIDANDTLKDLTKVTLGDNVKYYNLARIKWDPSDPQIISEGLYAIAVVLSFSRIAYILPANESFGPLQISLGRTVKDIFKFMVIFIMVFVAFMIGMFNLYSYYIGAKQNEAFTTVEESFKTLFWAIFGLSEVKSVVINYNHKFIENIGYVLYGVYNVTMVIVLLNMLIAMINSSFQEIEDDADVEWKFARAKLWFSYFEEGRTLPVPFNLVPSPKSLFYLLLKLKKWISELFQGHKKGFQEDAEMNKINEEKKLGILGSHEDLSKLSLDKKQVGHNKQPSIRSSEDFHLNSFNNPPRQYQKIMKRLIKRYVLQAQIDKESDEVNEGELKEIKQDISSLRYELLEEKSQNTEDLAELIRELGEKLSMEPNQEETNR
Nature of the assay: TRPC6 calcium flux assay (FLIPR, OAG-stimulated calcium influx). It is filed as cell-based. The note with it: HEK293 cells stably transfected with human TRPC6, read-out: hTRPC6 Potency. A digest of the protocol: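 HEK293 cells stably expressing human TRPC6, loaded with calcium dye 90–120 min at RT, then given compound for 25 min before OAG (50 uM final, 0.5% DMSO) in HEPES buffer pH 7.2 with 2 mM CaCl2. Background-subtracted FLIPR peak over 180 s normalized to OAG vs buffer; IC50 from dose plot.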
As to `CN(C)C(=O)Cn1c(N2CC[C@H](F)[C@H](N)C2)nc2ccc(Cl)cc21` [Example 461, 2-(2-((3R,4S)-3-amino-4-fluoropiperidin-1-yl)-6-chloro-1H-benzo[d]imidazol-1-yl)-N,N-dimethylacetamide], the IC50 stood at 28.9 nM.

Take `CN(CC(F)(F)F)C(=O)Cn1c(N2CC[C@H](F)[C@H](N)C2)nc2ccc(F)cc21` [Example 462, 2-(2-((3R,4S)-3-amino-4-fluoropiperidin-1-yl)-6-fluoro-1H-benzo[d]imidazol-1-yl)-N-methyl-N-(2,2,2-trifluoroethyl)acetamide]: the IC50 was 29.4 nM.

As to `CO[C@H]1CCN(c2nc3ccc(F)cc3n2Cc2ccc(C#N)cn2)C[C@H]1N` [Example 463, 6-((2-((3R,4S)-3-amino-4-methoxypiperidin-1-yl)-6-fluoro-1H-benzo[d]imidazol-1-yl)methyl)nicotinonitrile], the IC50 turned out to be 33.9 nM.

Take `N[C@@H]1CN(c2nc3ccc(C(F)(F)F)cc3n2CC(=O)N2CCOCC2)CC[C@@H]1F` [Example 464, 2-(2-((3R,4S)-3-amino-4-fluoropiperidin-1-yl)-6-(trifluoromethyl)-1H-benzo[d]imidazol-1-yl)-1-morpholinoethan-1-one]: the IC50 is 63.1 nM.

Regarding `CN(CC(F)(F)F)C(=O)Cn1c(N2CCC(F)(F)[C@H](N)C2)nc2ccc(F)cc21` [Example 465, (R)-2-(2-(3-amino-4,4-difluoropiperidin-1-yl)-6-fluoro-1H-benzo[d]imidazol-1-yl)-N-methyl-N-(2,2,2-trifluoroethyl)acetamide], the IC50 came to 86.7 nM.

As for `CO[C@H]1CCN(c2nc3ccc(F)cc3n2Cc2ncc(Cl)cn2)C[C@H]1N` [Example 467, (3R,4S)-1-(1-((5-chloropyrimidin-2-yl)methyl)-6-fluoro-1H-benzo[d]imidazol-2-yl)-4-methoxypiperidin-3-amine], the IC50 worked out at 123 nM.

With `CN(C)C(=O)Cn1c(N2CC[C@@H](F)[C@H](N)C2)nc2ccc(OC(F)(F)F)cc21` [Example 468, 2-(2-((3R,4R)-3-amino-4-fluoropiperidin-1-yl)-6-(trifluoromethoxy)-1H-benzo[d]imidazol-1-yl)-N,N-dimethylacetamide], the IC50 was determined as 178 nM.

In the case of `CN[C@@H]1CN(c2nc3ccc(F)cc3n2CC(=O)N(C)CC(F)(F)F)CC[C@H]1F` [Example 469, 2-(6-fluoro-2-((3R,4R)-4-fluoro-3-(methylamino)piperidin-1-yl)-1H-benzo[d]imidazol-1-yl)-N-methyl-N-(2,2,2-trifluoroethyl)acetamide], the IC50 is 190 nM.

Consider `N[C@@H]1CN(c2nc3cc(Br)ccc3n2CC(=O)N2CCC2)CC[C@H]1F` [Example 470, 2-(2-((3R,4R)-3-amino-4-fluoropiperidin-1-yl)-5-bromo-1H-benzo[d]imidazol-1-yl)-1-(azetidin-1-yl)ethan-1-one], for which the IC50 came out at 219 nM.

With `CN(C)C(=O)Cn1c(N2CC[C@H](F)[C@H](N)C2)nc2cc(Cl)ccc21` [Example 471, 2-(2-((3R,4S)-3-amino-4-fluoropiperidin-1-yl)-5-chloro-1H-benzo[d]imidazol-1-yl)-N,N-dimethylacetamide], the IC50 was 360 nM.

In the case of `CN(CC(F)(F)F)C(=O)Cn1c(N2CCCC3(CCCN3)C2)nc2ccc(F)cc21` (stereo not drawn) [Example 472, 2-(6-fluoro-2-(1,7-diazaspiro[4.5]decan-7-yl)-1H-benzo[d]imidazol-1-yl)-N-methyl-N-(2,2,2-trifluoroethyl)acetamide], the IC50 stood at 383 nM.

As for `N[C@@H]1CN(c2nc3cc(C(F)(F)F)ccc3n2CC(=O)N2CCOCC2)CC[C@H]1F` [Example 473, 2-(2-((3R,4R)-3-amino-4-fluoropiperidin-1-yl)-5-(trifluoromethyl)-1H-benzo[d]imidazol-1-yl)-1-morpholinoethan-1-one], the IC50 stood at 398 nM.

With `CN(C)C(=O)Cn1c(N2CC[C@@H](F)[C@H](N)C2)nc2cc(OC(F)(F)F)ccc21` [Example 474, 2-(2-((3R,4R)-3-amino-4-fluoropiperidin-1-yl)-5-(trifluoromethoxy)-1H-benzo[d]imidazol-1-yl)-N,N-dimethylacetamide], the IC50 amounted to 411 nM.

On to `N[C@@H]1CN(c2nc3cc(OC(F)(F)F)ccc3n2CC(=O)N2CCOCC2)CC[C@H]1F` [Example 475, 2-(2-((3R,4R)-3-amino-4-fluoropiperidin-1-yl)-5-(trifluoromethoxy)-1H-benzo[d]imidazol-1-yl)-1-morpholinoethan-1-one], for which the IC50 was found to be 620 nM.

Turning to `COc1cc(F)cc2nc(N3CC[C@@H](F)[C@H](N)C3)n(Cc3ccc(C#N)cn3)c12` [Example 476], the IC50 turned out to be 763 nM.

Take `CO[C@H]1CCN(c2nc3cc(F)ccc3n2Cc2ncc(Cl)cn2)C[C@H]1N` [Example 477, (3R,4S)-1-(1-((5-chloropyrimidin-2-yl)methyl)-5-fluoro-1H-benzo[d]imidazol-2-yl)-4-methoxypiperidin-3-amine]: the IC50 was 1030 nM.

As for `N[C@@H]1CN(c2nc3cc(C(F)(F)F)ccc3n2CC(=O)N2CCOCC2)CC[C@@H]1F` [Example 478, 2-(2-((3R,4S)-3-amino-4-fluoropiperidin-1-yl)-5-(trifluoromethyl)-1H-benzo[d]imidazol-1-yl)-1-morpholinoethan-1-one], the IC50 turned out to be 1050 nM.

On to `CN[C@@H]1CN(c2nc3cc(F)ccc3n2CC(=O)N(C)CC(F)(F)F)CC[C@H]1F` [Example 479, 2-(5-fluoro-2-((3R,4R)-4-fluoro-3-(methylamino)piperidin-1-yl)-1H-benzo[d]imidazol-1-yl)-N-methyl-N-(2,2,2-trifluoroethyl)acetamide], for which the IC50 turned out to be 1200 nM.

On to `CC1CN(c2nc3ccc(F)cc3n2CC(=O)N(C)CC(F)(F)F)CC1N` (stereo not drawn) [Example 480, 2-(2-(3-amino-4-methylpyrrolidin-1-yl)-6-fluoro-1H-benzo[d]imidazol-1-yl)-N-methyl-N-(2,2,2-trifluoroethyl)acetamide], for which the IC50 came to 1200 nM.

Regarding `CN(CC(F)(F)F)C(=O)Cn1c(N2CC[C@@H](O)[C@H](N)C2)nc2ccc(F)cc21` [Example 481, 2-(2-((3R,4R)-3-amino-4-hydroxypiperidin-1-yl)-6-fluoro-1H-benzo[d]imidazol-1-yl)-N-methyl-N-(2,2,2-trifluoroethyl)acetamide], the IC50 is 2400 nM.

Consider `CN(CC(F)(F)F)C(=O)Cn1c(N2CCC(F)(F)[C@H](N)C2)nc2cc(F)ccc21` [Example 482, (R)-2-(2-(3-amino-4,4-difluoropiperidin-1-yl)-5-fluoro-1H-benzo[d]imidazol-1-yl)-N-methyl-N-(2,2,2-trifluoroethyl)acetamide], for which the IC50 turned out to be 2740 nM.

For `CO[C@@H]1CCN(c2nc3cc(F)ccc3n2CC(=O)N(C)CC(F)(F)F)C[C@H]1N` [Example 483, 2-(2-((3R,4R)-3-amino-4-methoxypiperidin-1-yl)-5-fluoro-1H-benzo[d]imidazol-1-yl)-N-methyl-N-(2,2,2-trifluoroethyl)acetamide], the IC50 came out at 2740 nM.

For `CO[C@@H]1CCN(c2nc3ccc(F)cc3n2CC(=O)N(C)CC(F)(F)F)C[C@H]1N` [Example 485, 2-(2-((3R,4R)-3-amino-4-methoxypiperidin-1-yl)-6-fluoro-1H-benzo[d]imidazol-1-yl)-N-methyl-N-(2,2,2-trifluoroethyl)acetamide], the IC50 was above 3750 nM.

For the molecule `CN(CC(F)(F)F)C(=O)Cn1c(N2CCC(F)(CN)C2)nc2ccc(F)cc21` (stereo not drawn) [Example 486, 2-(2-(3-(aminomethyl)-3-fluoropyrrolidin-1-yl)-6-fluoro-1H-benzo[d]imidazol-1-yl)-N-methyl-N-(2,2,2-trifluoroethyl)acetamide], the IC50 is above 1750 nM.

`CN(CC(F)(F)F)C(=O)Cn1c(N2CCC(F)(CN)C2)nc2cc(F)ccc21` (stereo not drawn) [Example 487, 2-(2-(3-(aminomethyl)-3-fluoropyrrolidin-1-yl)-5-fluoro-1H-benzo[d]imidazol-1-yl)-N-methyl-N-(2,2,2-trifluoroethyl)acetamide]: the IC50 is above 3750 nM.

As for `CN(CC(F)(F)F)C(=O)Cn1c(N2CC[C@H]3OCCN[C@@H]3C2)nc2ccc(F)cc21` [Example 488, 2-(6-fluoro-2-((4aR,8aR)-hexahydro-2H-pyrido[4,3-b][1,4]oxazin-6(5H)-yl)-1H-benzo[d]imidazol-1-yl)-N-methyl-N-(2,2,2-trifluoroethyl)acetamide], the IC50 was above 3750 nM.

With `CN(CC(F)(F)F)C(=O)Cn1c(N2CC[C@H](N)C2)nc2ccc(F)cc21` [Example 489, (S)-2-(2-(3-aminopyrrolidin-1-yl)-6-fluoro-1H-benzo[d]imidazol-1-yl)-N-methyl-N-(2,2,2-trifluoroethyl)acetamide], the IC50 is above 3750 nM.
